The numbers were not newly measured in patent US7193081B2, “Process for preparation of cyclic prodrugs of PMEA and PMPA” (Metabasis Therapeutics, Inc., priority 2002, dated 2007), which cites them from elsewhere.

One data set deals with hepatitis B. Particulars: against hepatitis B.
The test system of the next data set is HIV. Conditions: against HIV.

For the compound `Nc1ncnc2c1ncn2CCOCP(=O)(O)O` [PMEA, 9-(2-phosphonylmethoxyethyl)adenine], the antiviral activity result with hepatitis B and in the data set with HIV was “exhibit antiviral activity” each time.
With `C[C@H](Cn1cnc2c(N)ncnc21)OCP(=O)(O)O` [PMPA, (R)-9-(2-phosphonyl-methoxypropyl)adenine], the antiviral activity entry in the data set on hepatitis B and with HIV was “exhibit antiviral activity” in each case.
